27 compounds from ChEMBL document CHEMBL4376849, “Harmicines - harmine and cinnamic acid hybrids as novel antiplasmodial hits” (Eur J Med Chem, 2020) can be followed below.

What is called IC50 is the concentration needed to halve the response being measured. High values mean weaker potency, low ones greater potency.

The test system of data set [1] is Plasmodium falciparum. The experiment in a line: Antiplasmodial activity against chloroquine-sensitive Plasmodium falciparum 3D7 erythrocytic stage measured after 3 days by HRP2 assay. The format is functional, organism-based. The conditions noted are these: 3D7, 72 h.
The subject of data set [2] is Plasmodium falciparum. The experiment in a line: Antiplasmodial activity against chloroquine-resistant Plasmodium falciparum Dd2 erythrocytic stage measured after 3 days by HRP2 assay. The format is functional, organism-based. Particulars: Dd2, 72 h.
Another data set relates to HepG2. The experiment in a line: Cytotoxicity against human HepG2 cells measured after 24 hrs by neutral red assay. In kind it is cell-based. The conditions noted are these: HepG2, 24 h.
Data set [3] can be described thus: Selectivity index, ratio of IC50 for human HepG2 cells to IC50 for Plasmodium falciparum 3D7. The format is toxicity. The conditions noted are these: read-out: Ratio IC50.
A further data set relates to Plasmodium berghei. The experiment in a line: Antiplasmodial activity against liver stage luciferase expressing Plasmodium berghei sporozoites infected in human Huh7 cells preincubated with host cells for 1 hr followed by plasmodium infection by bioluminescence assay. In kind it is functional, organism-based. Particulars: Huh-7.

Where only a bound is given, the exact number is not on record here.

In the case of `Cc1nccc2c1[nH]c1cc(OCc3cn(C/C=C/c4ccc(F)cc4)nn3)ccc12`, the IC50 came out at 200 nM in the data set with Plasmodium falciparum [1], 840 nM in the data set with Plasmodium falciparum [2] and 2190 nM with HepG2. For the same compound, the selectivity ratio in data set [3] turned out to be 11.
Turning to `Cc1nccc2c3ccc(OCc4cn(C/C=C/c5ccc(Cl)cc5)nn4)cc3n(Cc3cn(C/C=C/c4ccc(Cl)cc4)nn3)c12`, the IC50 in the data set on Plasmodium falciparum [1] is 250 nM; in the data set with Plasmodium falciparum [2], 3280 nM; in the data set with HepG2 it was 29000 nM. Further, in data set [3], the selectivity ratio is 116.
The matching figures for `COc1ccc2c3ccnc(C)c3n(Cc3cn(C/C=C/c4ccc5c(c4)OCO5)nn3)c2c1`: 500 nM, 1570 nM, 8780 nM and 18.
The matching figures for `C/C(=C\c1ccccc1)Cn1cc(COc2ccc3c4ccnc(C)c4n(Cc4cn(C/C(C)=C/c5ccccc5)nn4)c3c2)nn1`: 1340 nM, 4020 nM, 25000 nM and 19.
Take `C/C(=C\c1ccccc1)Cn1cc(COc2ccc3c(c2)[nH]c2c(C)nccc23)nn1`: the IC50 in the data set on Plasmodium falciparum [1] stood at 330 nM; in the data set with Plasmodium falciparum [2] it was 3060 nM; in the data set on Plasmodium berghei it was 660 nM; with HepG2, 25300 nM. Further, in data set [3], the selectivity ratio is 77.
For the compound `Cc1nccc2c1[nH]c1cc(OCc3cn(C/C=C/c4ccccc4)nn3)ccc12`, the IC50 in the data set on Plasmodium falciparum [1] turned out to be 260 nM; in the data set on Plasmodium falciparum [2], 1090 nM; with HepG2, 9670 nM. In addition, the selectivity ratio in data set [3] is 37.
On to `COc1ccc2c3ccnc(C)c3n(Cc3cn(C/C=C/c4ccc(Cl)cc4)nn3)c2c1`, for which the IC50 in the data set on Plasmodium falciparum [1] is 440 nM; with Plasmodium falciparum [2], 1870 nM; with Plasmodium berghei, 1120 nM; in the data set with HepG2, above 250000 nM. Moreover, in data set [3], the selectivity ratio is above 568.
As to `Cc1nccc2c1[nH]c1cc(OCc3cn(C/C=C/c4ccc(F)c(F)c4)nn3)ccc12`, the IC50 with Plasmodium falciparum [1] was 340 nM; in the data set with Plasmodium falciparum [2] it was 1010 nM; with HepG2, 740 nM. Further, the selectivity ratio in data set [3] was 2.
For `Cc1nccc2c1[nH]c1cc(OCc3cn(C/C=C/c4cccc(F)c4)nn3)ccc12`, the IC50 stood at 200 nM in the data set on Plasmodium falciparum [1], 1190 nM in the data set on Plasmodium falciparum [2] and 3110 nM in the data set on HepG2. Further, the selectivity ratio in data set [3] worked out at 16.
Take `COc1ccc2c3ccnc(C)c3n(Cc3cn(C/C(C)=C/c4ccccc4)nn3)c2c1`: the figures for the IC50 in the data set on Plasmodium falciparum [1], in the data set on Plasmodium falciparum [2] and in the data set with HepG2 were 770 nM, 2820 nM and 11900 nM, respectively. In addition, the selectivity ratio in data set [3] was determined as 15.
As to `COc1ccc2c3ccnc(C)c3n(Cc3cn(C/C=C/c4cccc(Br)c4)nn3)c2c1`, the IC50 was found to be 560 nM in the data set with Plasmodium falciparum [1], 2260 nM in the data set with Plasmodium falciparum [2], 1100 nM in the data set with Plasmodium berghei and 56600 nM in the data set with HepG2. Besides, in data set [3], the selectivity ratio stood at 101.
The matching figures for `COc1ccc(/C=C/Cn2cc(COc3ccc4c5ccnc(C)c5n(Cc5cn(C/C=C/c6ccc(OC)cc6)nn5)c4c3)nn2)cc1`: 130 nM, 160 nM, 400 nM, 43300 nM and 333.
Regarding `COc1ccc2c3ccnc(C)c3n(Cc3cn(C/C=C/c4ccc(F)cc4)nn3)c2c1`, the IC50 with Plasmodium falciparum [1] came to 870 nM; with Plasmodium falciparum [2], 2210 nM; in the data set on HepG2, 8880 nM. In data set [3], the selectivity ratio worked out at 10.
As for `Cc1nccc2c3ccc(OCc4cn(C/C=C/c5ccccc5)nn4)cc3n(Cc3cn(C/C=C/c4ccccc4)nn3)c12`, the IC50 in the data set on Plasmodium falciparum [1] is 560 nM; in the data set on Plasmodium falciparum [2], 1590 nM; in the data set with HepG2, 8590 nM. In addition, the selectivity ratio in data set [3] was found to be 15.
For the compound `Cc1nccc2c3ccc(OCc4cn(C/C=C/c5cccc(F)c5)nn4)cc3n(Cc3cn(C/C=C/c4cccc(F)c4)nn3)c12`, the IC50 with Plasmodium falciparum [2] came out at 3230 nM; in the data set with HepG2, 6010 nM. The selectivity ratio in data set [3] is 2.
Turning to `COc1ccc2c3ccnc(C)c3n(Cc3cn(C/C=C/c4ccccc4)nn3)c2c1`, the IC50 in the data set with Plasmodium falciparum [1] is 1260 nM; in the data set with Plasmodium falciparum [2], 23800 nM; in the data set with Plasmodium berghei, 2620 nM; in the data set with HepG2, above 250000 nM. For the same compound, in data set [3], the selectivity ratio is above 198.
On to `COc1ccc2c3ccnc(C)c3n(Cc3cn(C/C=C/c4cccc(F)c4)nn3)c2c1`, for which the IC50 in the data set with Plasmodium falciparum [1] was 890 nM; with Plasmodium falciparum [2], 2700 nM; in the data set on HepG2 it was above 250000 nM. In addition, the selectivity ratio in data set [3] is above 281.
With `Cc1nccc2c1[nH]c1cc(OCc3cn(C/C=C/c4ccc5c(c4)OCO5)nn3)ccc12`, the values for the IC50 with Plasmodium falciparum [1], with Plasmodium falciparum [2] and in the data set on HepG2 were 160 nM, 470 nM and 5600 nM, respectively. In data set [3], the selectivity ratio was determined as 35.
The matching figures for `Cc1nccc2c1[nH]c1cc(OCc3cn(C/C=C/c4ccc(Cl)cc4)nn3)ccc12`: 150 nM, 690 nM, 8800 nM and 59.
As to `Cc1nccc2c3ccc(OCc4cn(C/C=C/c5ccc(F)cc5)nn4)cc3n(Cc3cn(C/C=C/c4ccc(F)cc4)nn3)c12`, the IC50 turned out to be 620 nM in the data set with Plasmodium falciparum [1], 8000 nM in the data set on Plasmodium falciparum [2] and 12100 nM with HepG2. Further, in data set [3], the selectivity ratio came to 20.
With `Cc1nccc2c3ccc(OCc4cn(C/C=C/c5ccc(F)c(F)c5)nn4)cc3n(Cc3cn(C/C=C/c4ccc(F)c(F)c4)nn3)c12`, the IC50 in the data set on Plasmodium falciparum [1] was found to be 1070 nM; in the data set on Plasmodium falciparum [2], 17900 nM; with HepG2 it was 11000 nM. Moreover, the selectivity ratio in data set [3] worked out at 6.
In the case of `COc1ccc(/C=C/Cn2cc(COc3ccc4c(c3)[nH]c3c(C)nccc34)nn2)cc1`, the values for the IC50 with Plasmodium falciparum [1], with Plasmodium falciparum [2] and in the data set with HepG2 were 430 nM, 690 nM and 5370 nM, respectively. Also, the selectivity ratio in data set [3] was 12.
For `COc1ccc2c3ccnc(C)c3n(Cc3cn(C/C=C/c4ccc(F)c(F)c4)nn3)c2c1` the same measures were 650 nM, 2550 nM, 9750 nM and 15.
For the compound `Cc1nccc2c1[nH]c1cc(OCc3cn(C/C=C/c4cccc(Br)c4)nn3)ccc12`, the values for the IC50 in the data set with Plasmodium falciparum [1], in the data set on Plasmodium falciparum [2] and with HepG2 were 130 nM, 460 nM and 2860 nM, respectively. In addition, the selectivity ratio in data set [3] was determined as 22.
The matching figures for `COc1ccc(/C=C/Cn2cc(Cn3c4cc(OC)ccc4c4ccnc(C)c43)nn2)cc1`: 610 nM, 16600 nM, above 120000 nM and above 197.
As to `Cc1nccc2c3ccc(OCc4cn(C/C=C/c5ccc6c(c5)OCO6)nn4)cc3n(Cc3cn(C/C=C/c4ccc5c(c4)OCO5)nn3)c12`, the IC50 in the data set with Plasmodium falciparum [1] is 440 nM; in the data set on Plasmodium falciparum [2], 650 nM; in the data set with HepG2, 36100 nM. Further, the selectivity ratio in data set [3] stood at 82.
With `COc1ccc2c(c1)[nH]c1c(C)nccc12` [HARMINE], the IC50 with Plasmodium falciparum [2] was above 27700 nM; in the data set on HepG2 it was above 250000 nM.
